US20230149732A1, “COMBINED NITRITE AND LIGHT TREATMENT TO PREVENT DEVICE THROMBOSIS” (Wake Forest University Health Sciences, priority 2021, published 2023)
Where two headings read alike, the source gives them in different places.

Columns and labels:
oxygenated Hb (OxyHb) = oxygenated Hb (OxyHb) (Homo sapiens, UniProt P68871+P69905); settings: NO + HbO2; cited from earlier work
platelet activation = assay: Inhibition of platelet activation, with or without RBCs (flow cytometry); assay type: cell-based; settings: for effect on nitrite-mediated inhibition of platelet activation by RBCs: NO scavenger or RBC surface thiol blocker added
Text: This disclosure also teaches that far-red and near infrared light dramatically enhance nitrite bioactivation by RBCs. Far-red light (about 600-750 nm) and near infrared light (about 700-1400 nm) have been used clinically for improved wound healing, tissue generation, reduction of inflammation, and increasing cerebral blood flow to improve cognition. The mechanism for these actions has been attributed generally to increased blood flow, tissue oxygenation, and angiogenesis secondary to improved mitochondrial function attributed to cytochrome c oxidase redox state and function. However, it was not clear how improvement in cytochrome c oxidation state could account for increased blood flow and other effects of infrared/far-red light. […] The data shown in FIG. 2 strongly supports this premise (note scales). Previous work using inhibition of platelet activation as a measure of nitrite bioactivation has shown that (i) RBCs are necessary for nitrite-mediated inhibition of platelet activation (while other NO donors' ability to inhibit platelet activation is blunted by the presence of RBCs), (ii) this action is abrogated by an NO scavenger, (iii) this action is achieved with plasma levels of nitrite easily attained through dietary nitrate interventions, and (iv) this action involves RBC surface thiols. […] This is attributed to accumulating steady state NO species on the surface of the RBCs. The effects of far-red light without nitrite treatment are small and variable, perhaps reflecting small amounts of nitrite present at steady state and varying between individuals due to diet and other factors.
Nitrite addition to activated platelets in the absence of RBCs has no effect (FIG. 2A—note scale is expanded). […] This interaction is depicted in FIG. 1. It has been shown that Hb is the primary erythrocytic nitrite reductase and that nitrite bioactivation by RBCs involves NO. […] Nitrite is the best suited NO donor for treating thrombosis as it requires the presence of RBCs to work while others efficacy is blunted by RBCs (via the reaction described in Equation 2).
where the ferric hemin reversibly binds NO, GSH reduces the hemin and forms a thiyl radical which then reacts with NO, similar to a mechanism proposed for DNIC formation. The formation of the thiyl radical is supported by lower GSNO yield when the thiyl radical trap 5,5-dimethyl-1-pyrroline N-oxide (DMPO) is added (FIG. 4D). Thus, this system of hemin, NO and thiol (all present in the RBC after nitrite addition) yield both species of interest: nitrosothiols and heme-nitrosyls (which can bind to a surface thiol). Studies using RBCs. […] This inhibition was abrogated by pre-treatment with the thiol binding agent N-ethyl maleimide (NEM) (FIG. 5).

clotting in blood = settings: TEG, RBCs present
Description: (§1) The effects of nitrite and light on reducing clotting in blood were conducted by comparing sham, light alone, nitrite alone and the combination.

clotting = tested on: clotting
Description: (§2) Also disclosed herein is a mechanism though which […] potentiates the anti-thrombotic effects of far-red light. […] The effects of combining far-red light and nitrite in inhibiting several different measures of clotting using different agonists are disclosed herein.
as §1

[1] = target: T1, partially deoxygenated hemoglobin (Homo sapiens, UniProt P68871+P69905); settings: hemoglobin 10 mM (in heme) in blood, pseudo first order
Description: In addition, nitrite was measured to assess the effective dose that a patient may encounter. […] For all experiments, the same blood was used for control and treatment and the same amount of calcium infused at the same timepoints. For the example shown in FIG. 11A, no calcium was infused. […] For the example shown in FIG. 11B, calcium additions was added at the 1.5 hour mark and at each of the next two 0.5 hour intervals (1.5 mM; 0.75 mM; and 0.375 mM).

platelet adhesion = settings: dual treatment: nitrite plus far-red light
Text: as §2

[2] = tested on: device thrombosis in extracorporeal circuit
Description: Two Mito MD LED sources were employed with the tubing sandwiched in between. The power of the LEDs is reported as 100 mW/cm^2 at 6 inches from the device and we measured 35 mW/cm^2 at this distance and 230 mW/cm^2 directly at the surface. […] The system was also maintained at the desired temperature using a circulating water bath attached to the oxygenator representative of use conditions. The blood was deoxygenated by flowing nitrogen through the oxygenator to mimic venous blood from a real patient and hemoglobin saturation was about 70% or so, as tested using absorption spectroscopy and our integrating sphere detector for turbid samples.
Disclosed herein are outcome measures to test the efficacy of the device, including: • (1) Patency of the device. Whether enough clotting will occur to impede flow enough so that the experiment needs to be stopped before six hours of testing. The time to stopping was recorded. • (2) Pressure as a function of time. The pressure in the circuit was recorded every 15 minutes with higher pressures indicating occlusive clotting. • (3) Visual inspection for clotting. Tubing was examined thoroughly every 15 minutes with flashlights and photographs were taken to record the size and number of visual clots. • (4) Blood aliquots were collected every 15 minutes to measure oxygenation state of hemoglobin (so the nitrogen flow can be adjusted). A spectrometer was used with an integrating sphere that collected scattered light to get true absorption of turbid samples. […] RBCS were sedimented and hemoglobin concentration in the supernatant determined by absorption spectroscopy. • (7) Platelet count was assessed as part of a complete blood count. Platelet count goes down as platelets adhere and aggregate in the system.
In addition, nitrite was measured to assess the effective dose that a patient may encounter. […] For all experiments, the same blood was used for control and treatment and the same amount of calcium infused at the same timepoints.
The system was tested by comparing treatment to control in terms of patency, platelet count, and platelet activation.

[3] = target: T1, partially deoxygenated hemoglobin; settings: cited from earlier work
deoxygenated RBCs = assay: Heme nitrosyl export from deoxygenated RBCs incubated with nitrite (tri-iodide chemiluminescence assay); assay type: cell-based; settings: with versus without hemopexin

T1 sequence (P69905 2-142 limits assumed): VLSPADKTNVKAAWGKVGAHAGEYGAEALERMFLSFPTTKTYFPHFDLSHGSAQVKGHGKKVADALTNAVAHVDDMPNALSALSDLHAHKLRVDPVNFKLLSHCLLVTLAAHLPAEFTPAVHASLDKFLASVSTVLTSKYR
T1 sequence (P68871 2-147 limits assumed): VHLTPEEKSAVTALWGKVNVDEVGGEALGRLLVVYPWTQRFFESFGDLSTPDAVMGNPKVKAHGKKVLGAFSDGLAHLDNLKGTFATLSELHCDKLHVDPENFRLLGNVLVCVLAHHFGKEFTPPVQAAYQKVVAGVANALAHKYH
Chain of oxygenated Hb (OxyHb) (P69905 2-142 limits assumed): as the sequence (P69905 2-142 limits assumed) above
Chain of oxygenated Hb (OxyHb) (P68871 2-147 limits assumed): as the sequence (P68871 2-147 limits assumed) above

## [N]=O [NO, Nitric oxide]
Oxygenated Hb (OxyHb)
  rate constant: 6-8×10^7 M^−1s^−1

## CCN1C(=O)C=CC1=O [NEM, N-ethyl maleimide]
Platelet activation; pre-treatment with thiol binding agent
  effect on platelet inhibition by SNAP-treated RBCs: abrogated

## O=C(O)c1cc(SSc2ccc([N+](=O)[O-])c(C(=O)O)c2)ccc1[N+](=O)[O-] [DTNB]
Platelet activation
  effect on nitrite-mediated inhibition of platelet activation by RBCs: abrogates inhibition of platelets

## CC1(C)N([O])C(c2ccc(C(=O)O)cc2)=[N+]([O-])C1(C)C [CPTIO]
Platelet activation
  effect on nitrite-mediated inhibition of platelet activation by RBCs: abrogated

## O=NO [nitrite]
Clotting in blood
  rate of clot growth: decreasing the rate of clot growth
  time to initial fibrin formation (R-time): increasing the time to initial fibrin formation
clotting; combination of nitrite and light, all assays
  reduction of clotting: universally effective in reducing clotting
clotting; monotherapy
  reduction of clotting: mixed effects
[1]
  lifetime of the nitrite: about 100 seconds
Platelet adhesion
  platelet adhesion: decreases platelet adhesion
Platelet activation; RBCs present, nitrite alone
  effect on platelet activation: decreases platelet activation
Platelet activation; RBCs present, nitrite plus far-red light 660 nm, ~5 min
  inhibition of platelet activation: dramatically enhances nitrite bioactivation by RBCs
Platelet activation; nitrite added to activated platelets, absence of RBCs
  effect on platelet activation: has no effect
[2]; combined nitrite and red light
  survival time of treated system longer than control circuit, average: 220%
[2]; treated system (nitrite plus light), complete blood count, averaged
  decrease in the number of platelets, first to last sample: 32%
[2]; whole blood, calcium infused, nitrite plus far-red light from the 1.5 hour mark
  pressure in the circuit: decreased to less than that of the control circuit
[3]
  bimolecular rate constant: 1 M⁻¹ s⁻¹

## CC(=O)N[C@H](C(=O)O)C(C)(C)SN=O (racemic) [SNAP, S-Nitroso-N-acetylpenicillamine]
Platelet activation; RBCs treated with SNAP, excess removed
  platelet activation with RBCs treated with nitrosating agent, then washed: caused the RBCs to inhibit platelet activation
Platelet activation; RBCs treated, washed, then illuminated
  effect of light illumination on platelet activation with treated RBCs: Light potentiates effects

B1: hemopexin: a plasma protein with extremely high affinity for free heme (protein, UniProt P02790 24-462, looked up)
Hemopexin: TPLPPTSAHGNVAEGETKPDPDVTERCSDGWSFDATTLDDNGTMLFFKGEFVWKSHKWDRELISERWKNFPSPVDAAFRQGHNSVFLIKGDKVWVYPPEKKEKGYPKLLQDEFPGIPSPLDAAVECHRGECQAEGVLFFQGDREWFWDLATGTMKERSWPAVGNCSSALRWLGRYYCFQGNQFLRFDPVRGEVPPRYPRDVRDYFMPCPGRGHGHRNGTGHGNSTHHGPEYMRCSPHLVLSALTSDNHGATYAFSGTHYWRLDTSRDGWHSWPIAHQWPQGPSAVDAAFSWEEKLYLVQGTQVYVFLTKGGYTLVSGYPKRLEKEVGTPHGIILDSVDAAFICPGSSRLHIMAGRRLWWLDLKSGAQATWTELPWPHEKVDGALCMEKSLGPNSCSANGPGLYLIHGPNLYCYSDVEKLNAAKALPQPQNVTSLLGCTH
Deoxygenated RBCs
  NO species in the supernatant: significantly greater NO
